Reference: US5434052A, “Complementation assay for drug screening” (Microgenics Corporation, priority 1993, dated 1995)

Tests used:
[1] = molecular target: T1, bovine Folate Binding Protein (Bos taurus, UniProt P02702); test: Inhibition of ED14-Folate conjugate with folate binding protein; competition by folic acid sample, β-galactosidase complementation; set-up: dose or concentration left out as unconfirmed; conditions: folate binding protein diluted approximately 1:2500
T1 construct: purchased Biochemical Inc., Englewood, Colo
T1 sequence (P02702 20-241): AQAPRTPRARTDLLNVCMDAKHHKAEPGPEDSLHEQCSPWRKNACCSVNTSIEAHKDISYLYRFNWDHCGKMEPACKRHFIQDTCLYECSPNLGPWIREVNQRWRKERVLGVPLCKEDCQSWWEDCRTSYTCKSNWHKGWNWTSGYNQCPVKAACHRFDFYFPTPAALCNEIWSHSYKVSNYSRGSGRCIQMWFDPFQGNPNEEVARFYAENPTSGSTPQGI
Procedure: Binding Protein Reagent consists of bovine Folate Binding Protein (Biochemical Inc., Englewood, Colo.) diluted approximately 1:2500 in 150 mM potassium phosphate, 50 mM sodium borate, 1% BSA (B12-Grade BSA, Sigma, St. Louis, Mo.), 1% Lubrol and 20 mM sodium azide, pH 7.0. ED14-Folate Conjugate/Substrate Reagent contains approximately 6.3 nM ED-Folate, 1.0 mg/ml OCNPG (o-chloro-p-nitrophenol galactopyranoside), 100 mM sodium phosphate, 150 mM potassium phosphate, 10 mM ethylene glycol tetraacetic acid, 2.5 mM dithiothreitol, 20 mM sodium azide, 0.05% Tween 20 with 0.05 mM dithiothreitol, pH 7.0. EA Reagent consists of a recombinant protein resembling the carboxyl-terminal end of β-galactosidase in 100 mM sodium phosphate, 150 mM potassium phosphate, 10 mM ethylene glycol tetraacetic acid, 5 mM magnesium acetate, 20 mM sodium azide, 0.05% Tween 20 with 0.05 mM dithiothreitol pH 7.0. EA concentration is approximately 2.2 μM. The assay procedure involves mixing of 300 μl of folic acid sample with 100 μl of binding protein reagent and incubation for 15 min at room temperature. This becomes the pretreated sample. An instrument (clinical chemistry analyzer) is programmed to deliver 30 μl of pretreated sample with 100 μl of ED-Folate reagent for 2 to 5 min at 37° C. This is followed by the addition of 220 μl of EA reagent to the reaction mixture by the instrument and the enzyme rate is read by absorbance change at […]. The following table indicates a typical assay performance.

[2] = molecular target: T2, (Homo sapiens, UniProt P05543); test: Inhibition of ED4-T4 conjugate by thyroxin binding globulin, β-galactosidase complementation; conditions: 18 nM ED4-T4; for Observed Enzyme Rate: 420 nM, 37° C.
T2 construct: purchased Protus Laboratories, South San Francisco, CA
T2 sequence (P05543 21-415): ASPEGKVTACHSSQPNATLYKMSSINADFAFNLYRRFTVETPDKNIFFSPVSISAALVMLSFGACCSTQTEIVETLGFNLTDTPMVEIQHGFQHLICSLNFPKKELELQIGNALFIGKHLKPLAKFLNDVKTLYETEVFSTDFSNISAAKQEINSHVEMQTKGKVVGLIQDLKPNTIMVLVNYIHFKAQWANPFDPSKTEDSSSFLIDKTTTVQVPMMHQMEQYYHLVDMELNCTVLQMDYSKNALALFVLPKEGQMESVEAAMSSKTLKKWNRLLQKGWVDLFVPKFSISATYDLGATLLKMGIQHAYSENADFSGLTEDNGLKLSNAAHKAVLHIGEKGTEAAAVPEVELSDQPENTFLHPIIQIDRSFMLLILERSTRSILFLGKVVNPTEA
Procedure: Buffer=20 mM NaPO4 10 mM EGTA, 2 mM MgOAc, 3.6% Glycerol, 5 mM Sucrose, 20 mM NaN3, pH 7.0
Reagent=5U EA/Test or 31.25 U/ml of EA in EA Buffer
Buffer=20 mM NaPO4, 10 mM EGTA, 6.25 mg/ml ONPG, 0.05% Tween/DTT, 20 mM NaN3, pH 7.0
Reagent=18 nM ED4-T4 system concentration or 112.5 nM ED4-T4 in ED reagent buffer
Machine Program Parameters:
The receptor was purified TBG from Protus Laboratories, South San Francisco, CA diluted in PBS.

## Nc1nc2ncc(CNc3ccc(C(=O)N[C@@H](CCC(=O)O)C(=O)O)cc3)nc2c(=O)[nH]1 [Folate, Folic acid]
[1]; folate in sample 20
  % Inhibition of ED14-Folate Conjugate: 18.8%
  Observed Enzyme Rate: 290
[1]; folate in sample 200
  % Inhibition of ED14-Folate Conjugate: 0.0%
  Observed Enzyme Rate: 357

B1: TBG: purified TBG from Protus Laboratories, diluted in PBS (protein, UniProt P05543 21-415, looked up)
Thyroxine-binding globulin: ASPEGKVTACHSSQPNATLYKMSSINADFAFNLYRRFTVETPDKNIFFSPVSISAALVMLSFGACCSTQTEIVETLGFNLTDTPMVEIQHGFQHLICSLNFPKKELELQIGNALFIGKHLKPLAKFLNDVKTLYETEVFSTDFSNISAAKQEINSHVEMQTKGKVVGLIQDLKPNTIMVLVNYIHFKAQWANPFDPSKTEDSSSFLIDKTTTVQVPMMHQMEQYYHLVDMELNCTVLQMDYSKNALALFVLPKEGQMESVEAAMSSKTLKKWNRLLQKGWVDLFVPKFSISATYDLGATLLKMGIQHAYSENADFSGLTEDNGLKLSNAAHKAVLHIGEKGTEAAAVPEVELSDQPENTFLHPIIQIDRSFMLLILERSTRSILFLGKVVNPTEA
[2]; TBG receptor 18.3 μg/ml
  % Inhibition: 22%
  Observed Enzyme Rate: 367 mA/min
[2]; TBG receptor 55.0 μg/ml
  % Inhibition: 68%
  Observed Enzyme Rate: 154 mA/min
